Results reported in patent US7541368B2, “Pyrazoles as inhibitors of tumor necrosis factor” (Aventis Pharmaceuticals Inc., priority 2003, dated 2009).

Key:
[1] = target: T1, Inactive N-terminal His6 tagged murine P38 (Mus musculus, UniProt P47811); assay: p38 cascade assay (HTRF; inactive p38 activated by MKK-6, ATF-2 phosphorylation); assay type: biochemical; conditions: inactive p38 preincubated with compound, then MKK-6, ATF-2, ATP; read-out: 50% inhibition in the p38 cascade assay at concentrations within the range
T1 construct: His6 (N); made in house
T1 sequence (P47811 whole entry): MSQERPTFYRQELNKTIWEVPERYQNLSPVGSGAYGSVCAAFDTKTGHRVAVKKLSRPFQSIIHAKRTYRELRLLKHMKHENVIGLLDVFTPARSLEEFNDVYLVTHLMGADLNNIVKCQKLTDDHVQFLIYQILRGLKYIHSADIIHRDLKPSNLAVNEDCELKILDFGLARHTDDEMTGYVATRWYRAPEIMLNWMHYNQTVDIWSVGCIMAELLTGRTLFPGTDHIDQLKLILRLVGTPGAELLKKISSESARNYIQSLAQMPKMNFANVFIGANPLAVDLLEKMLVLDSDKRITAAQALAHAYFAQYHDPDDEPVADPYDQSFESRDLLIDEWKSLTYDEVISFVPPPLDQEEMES
Experimental: The homogeneous time resolved fluorescence method (HTRF) assay measured the phosphorylation of human activating transcription factor (ATF)-2 protein by P38 following activation by MKK-6 and was run in A384 well plate format. […] MBP-tagged mouse MKK-6 (final concentration 50 nM), GST-tagged ATF-2 (fmal concentration 200 nM) and ATP (final concentration 50 μM) were then added and the incubation continued for 90 min. p38, MKK-6 and ATF-2 were prepared in the Protein Production Group, Aventis Pharmaceuticals. XL665 labeled anti-GST antibody (Cis Bio International) and cryptate labeled anti-pbospho-ATF2 antibody (Cis Bio International) were then added to generate the specific signal proportional to the phosphorylation of the substrate. The close proximity of XL665 labeled anti-GST antibody/phosphorylated GST-ATF2 complex and the cryptate labeled anti-phospho-ATF2 antibody results in a fluorescence transfer from cryptate to XL665. The resulting fluorescence signal was than read on a LJL Acquest set at multi-method mode using a fluorescence filter set (E=360 nm, Em=615/665 nm) with UV dichroic mirror (Integration time: 300000 μs). The results are reported as IC50 values. Compounds were tested over the concentration range of 3×10^−10M to 3×10^−5M.

[2] = system: TNF-alpha release in THP-1 cells; assay: LPS-induced TNF-alpha release in THP-1 cells; assay type: cell-based; conditions: Homo sapiens, THP-1, LPS-stimulated THP-1 cells; read-out: 50% inhibition in the LPS-induced TNF-alpha release in THP-1 cells assay at concentrations within the range
Outline: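 Undifferentiated THP-1 monocytes (1×10^6 cells/ml, 1% FCS) preincubated 1 h at 37° C with compound (1×10^−9 to 1×10^−6 M, 0.3% DMSO), then stimulated with LPS (20 μg/ml) for 18 h. Supernatant TNF-alpha measured by sandwich ELISA (TMB read-out), interpolated from a log/log standard curve (0.125-16 ng/ml).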

| IC50 [1] [nM] | IC50 [2] [nM] | SMILES |
| --- | --- | --- |
| 10 to 100 | – | Cc1ccc(-n2nc(C(C)(C)C)cc2NC(=O)Nc2ccc(CC3CCN(C(=O)O[C@@H]4C[C@H](C)CC[C@H]4C(C)C)CC3)cc2)cc1 [Compound A1644, 4-{4-[3-(5-tert-Butyl-2-p-tolyl-2H-pyrazol-3-yl)-ureido]-benzyl}-piperidin-1-carboxylic acid (1R,2S,5R)-2-isopropyl-5-methyl-cyclohexyl ester] |
| – | 10 to 500 | Cc1ccc(-n2nc(C(C)(C)C)cc2NC(=O)Nc2ccc(CC3CCN(C(=O)c4c(C)cc(C)cc4C)CC3)cc2)cc1 [Compound A216, 1-(5-tert-Butyl-2-p-tolyl-2H-pyrazol-3-yl)-3-{4-[1-(2,4,6-trimethyl-benzoyl)-piperidin-4-ylmethyl]-phenyl}-urea] |
| – | 10 to 500 | Cc1ccc(-n2nc(C(C)(C)C)cc2NC(=O)Nc2ccc(CC3CCN(C(=O)CCc4ccco4)CC3)cc2)cc1 [Compound A274, 1-(5-tert-Butyl-2-p-tolyl-2H-pyrazol-3-yl)-3-{4-[1-(3-furan-2-yl-propionyl)-piperidin-4-ylmethyl]-phenyl}-urea] |
| – | 10 to 500 | COc1ccc(C)cc1S(=O)(=O)N1CCC(Cc2ccc(NC(=O)Nc3cc(C(C)(C)C)nn3-c3ccc(C)cc3)cc2)CC1 [Compound A592, 1-(5-tert-Butyl-2-p-tolyl-2H-pyrazol-3-yl)-3-{4-[1-(2-methoxy-5-methyl-benzenesulfonyl)-piperidin-4-ylmethyl]-phenyl}-urea] |
| – | 10 to 500 | COc1ccc(OCC(F)(F)F)c(C(=O)N2CCC(Cc3cccc(NC(=O)Nc4cc(C(C)(C)C)nn4-c4ccc(C)cc4)c3)CC2)c1 [Compound A132, 1-(5-tert-Butyl-2-p-tolyl-2H-pyrazol-3-yl)-3-(3-{1-[5-methoxy-2-(2,2,2-trifluoro-ethoxy)-benzoyl]-piperidin-4-ylmethyl}-phenyl)-urea] |
| – | 10 to 500 | Cc1ccc(-n2nc(C(C)(C)C)cc2NC(=O)Nc2cccc(CC3CCN(C(=O)c4ccc(CO)cc4)CC3)c2)cc1 [Compound A118, 1-(5-tert-Butyl-2-p-tolyl-2H-pyrazol-3-yl)-3-{3-[1-(4-hydroxymethyl-benzoyl)-piperidin-4-ylmethyl]-phenyl}-urea] |
| – | 10 to 500 | Cc1ccc(-n2nc(C(C)(C)C)cc2NC(=O)Nc2cccc(CC3CCN(C(=O)Cc4c[nH]c5ccccc45)CC3)c2)cc1 [Compound A168, 1-(5-tert-Butyl-2-p-tolyl-2H-pyrazol-3-yl)-3-{3-[1-(2-1H-indol-3-yl-acetyl)-piperidin-4-ylmethyl]-phenyl}-urea] |
| – | 10 to 500 | Cc1ccc(-n2nc(C(C)(C)C)cc2NC(=O)Nc2cccc(CC3CCN(C(=O)c4cnc(C)cn4)CC3)c2)cc1 [Compound A140, 1-(5-tert-Butyl-2-p-tolyl-2H-pyrazol-3-yl)-3-{3-[1-(5-methyl-pyrazine-2-carbonyl)-piperidin-4-ylmethyl]-phenyl}-urea] |
| – | 10 to 500 | COc1cc(OC)cc(C(=O)N2CCC(Cc3cccc(NC(=O)Nc4cc(C(C)(C)C)nn4-c4ccc(C)cc4)c3)CC2)c1 [Compound A73, 1-(5-tert-Butyl-2-p-tolyl-2H-pyrazol-3-yl)-3-{3-[1-(3,5-dimethoxy-benzoyl)-piperidin-4-ylmethyl]-phenyl}-urea] |
| – | 10 to 500 | Cc1ccc(-n2nc(C(C)(C)C)cc2NC(=O)Nc2ccc(CC3CCN(C(=O)c4ccc(-c5cnco5)cc4)CC3)cc2)cc1 [Compound A301, 1-(5-tert-Butyl-2-p-tolyl-2H-pyrazol-3-yl)-3-{4-[1-(4-oxazol-5-yl-benzoyl)-piperidin-4-ylmethyl]-phenyl}-urea] |
| – | 10 to 500 | Cc1ccc(-n2nc(C(C)(C)C)cc2NC(=O)Nc2ccc(CC3CCN(C(=O)c4ccoc4)CC3)cc2)cc1 [Compound A286, 1-(5-tert-Butyl-2-p-tolyl-2H-pyrazol-3-yl)-3-{4-[1-(furan-3-carbonyl)-piperidin-4-ylmethyl]-phenyl}-urea] |
| – | 10 to 500 | COc1cc(OC)cc(C(=O)N2CCC(Cc3ccc(NC(=O)Nc4cc(C(C)(C)C)nn4-c4ccc(C)cc4)cc3)CC2)c1 [Compound A266, 1-(5-tert-Butyl-2-p-tolyl-2H-pyrazol-3-yl)-3-{4-[1-(3,5-dimethoxy-benzoyl)-piperidin-4-ylmethyl]-phenyl}-urea] |
| – | 10 to 500 | CO[C@H](C(=O)N1CCC(Cc2cccc(NC(=O)Nc3cc(C(C)(C)C)nn3-c3ccc(C)cc3)c2)CC1)c1ccccc1 [Compound A4, 1-(5-tert-Butyl-2-p-tolyl-2H-pyrazol-3-yl)-3-{3-[1-((S)-2-methoxy-2-phenyl-acetyl)-piperidin-4-ylmethyl]-phenyl}-urea] |
| – | 10 to 500 | Cc1ccc(-n2nc(C(C)(C)C)cc2NC(=O)Nc2cccc(CC3CCN(C(=O)c4ccc5cnccc5n4)CC3)c2)cc1 [Compound A7, 1-(5-tert-Butyl-2-p-tolyl-2H-pyrazol-3-yl)-3-{3-[1-([1,6]naphthyridine-2-carbonyl)-piperidin-4-ylmethyl]-phenyl}-urea] |
| – | 10 to 500 | Cc1ccc(-n2nc(C(C)(C)C)cc2NC(=O)Nc2cccc(CC3CCN(C(=O)CCc4ccco4)CC3)c2)cc1 [Compound A81, 1-(5-tert-Butyl-2-p-tolyl-2H-pyrazol-3-yl)-3-{3-[1-(3-furan-2-yl-propionyl)-piperidin-4-ylmethyl]-phenyl}-urea] |
| – | 10 to 500 | Cc1ccc(-n2nc(C(C)(C)C)cc2NC(=O)Nc2cccc(CC3CCN(C(=O)c4ccc(OC(F)F)cc4)CC3)c2)cc1 [Compound A111, 1-(5-tert-Butyl-2-p-tolyl-2H-pyrazol-3-yl)-3-{3-[1-(4-difluoromethoxy-benzoyl)-piperidin-4-ylmethyl]-phenyl}-urea] |
| – | 10 to 500 | Cc1ccc(-n2nc(C(C)(C)C)cc2NC(=O)Nc2cccc(CC3CCN(C(=O)c4cccc(C(C)C#N)c4)CC3)c2)cc1 (stereo not shown) [Compound A79, 1-(5-tert-Butyl-2-p-tolyl-2H-pyrazol-3-yl)-3-(3-{1-[3-(cyano-methyl-methyl)-benzoyl]-piperidin-4-ylmethyl}-phenyl)-urea] |
| – | 10 to 500 | Cc1ccc(-n2nc(C(C)(C)C)cc2NC(=O)Nc2ccc(CC3CCN(C(=O)c4ccc(N)c(OC(F)(F)F)c4)CC3)cc2)cc1 [Compound A309, 1-{4-[1-(4-Amino-3-trifluoromethoxy-benzoyl)-piperidin-4-ylmethyl]-phenyl}-3-(5-tert-butyl-2-p-tolyl-2H-pyrazol-3-yl)-urea] |
| – | 10 to 500 | Cc1ccc(-n2nc(C(C)(C)C)cc2NC(=O)Nc2cccc(CC3CCN(C(=O)c4ccnc5ccccc45)CC3)c2)cc1 [Compound A186, 1-(5-tert-Butyl-2-p-tolyl-2H-pyrazol-3-yl)-3-{3-[1-(quinoline-4-carbonyl)-piperidin-4-ylmethyl]-phenyl}-urea] |
| – | 10 to 500 | COc1ccc(CC(=O)N2CCC(Cc3ccc(NC(=O)Nc4cc(C(C)(C)C)nn4-c4ccc(C)cc4)cc3)CC2)cc1OC [Compound A262, 1-(5-tert-Butyl-2-p-tolyl-2H-pyrazol-3-yl)-3-(4-{1-[2-(3,4-dimethoxy-phenyl)-acetyl]-piperidin-4-ylmethyl}-phenyl)-urea] |
| – | 10 to 500 | Cc1ccc(-n2nc(C(C)(C)C)cc2NC(=O)Nc2cccc(CC3CCN(C(=O)c4cc(C)oc4C)CC3)c2)cc1 [Compound A29, 1-(5-tert-Butyl-2-p-tolyl-2H-pyrazol-3-yl)-3-{3-[1-(2,5-dimethyl-furan-3-carbonyl)-piperidin-4-ylmethyl]-phenyl}-urea] |
| – | 10 to 500 | Cc1ccc(-n2nc(C(C)(C)C)cc2NC(=O)Nc2ccc(CC3CCN(C(=O)Cc4ccc5c(c4)OCO5)CC3)cc2)cc1 [Compound A263, 1-{4-[1-(2-Benzo[1,3]dioxol-5-yl-acetyl)-piperidin-4-ylmethyl]-phenyl}-3-(5-tert-butyl-2-p-tolyl-2H-pyrazol-3-yl)-urea] |
| – | 10 to 500 | Cc1ccc(-n2nc(C(C)(C)C)cc2NC(=O)Nc2ccc(CC3CCN(C(=O)Cc4cccs4)CC3)cc2)cc1 [Compound A388, 1-(5-tert-Butyl-2-p-tolyl-2H-pyrazol-3-yl)-3-{4-[1-(2-thiophen-2-yl-acetyl)-piperidin-4-ylmethyl]-phenyl}-urea] |
| – | 10 to 500 | Cc1ccc(-n2nc(C(C)(C)C)cc2NC(=O)Nc2cccc(CC3CCN(C(=O)c4ccc(-c5cnco5)cc4)CC3)c2)cc1 [Compound A106, 1-(5-tert-Butyl-2-p-tolyl-2H-pyrazol-3-yl)-3-{3-[1-(4-oxazol-5-yl-benzoyl)-piperidin-4-ylmethyl]-phenyl}-urea] |

| SMILES | IC50 [1] [nM] | IC50 [2] [nM] |
| --- | --- | --- |
| COc1ccc2c(CC(=O)N3C4CCC3CC(Cc3cccc(NC(=O)Nc5cc(C(C)(C)C)nn5-c5ccc(C)cc5)c3)C4)coc2c1 (stereo not shown) [Compound A618, 1-(5-tert-Butyl-2-p-tolyl-2H-pyrazol-3-yl)-3-(3-{8-[2-(6-methoxy-benzofuran-3-yl)-acetyl]-8-aza-bicyclo[3.2.1]oct-3-ylmethyl}-phenyl)-urea] | – | 10 to 500 |
